Measurements taken from US7399319B2, “Dyeing composition comprising a dye chosen from styryl and imine dyes and methods for dyeing keratin fibers” (L'Oreal S.A., priority 2005, dated 2008).

Test: Shampoo-fastness test on dyed locks
Description: A shampoo-fastness test was performed on the locks of hair dyed with dyes 1 and 2 obtained under the conditions described above. The dyed locks were subjected to 20 shampoo washes according to a cycle comprising wetting the locks with water, washing with shampoo, rinsing with water, and then drying.
The degradation of the color after x shampoo washes was estimated according to the following formula:
[formula] [formula] [formula] [formula] [formula] wherein a*ctrl, b*ctrl, and L*ctrl are the values of a*, b*, and L* of the non-dyed lock; a*dyed, b*dyed, and L*dyed are the values of a*, b*, and L* of the dyed lock before shampooing, whereas a*xSh, b*xSh, and L*xSh are the values of a*, b*, and L* of the dyed lock after x shampoo washes.

[1] = permanent-waved lock, after 5 shampoo washes
[2] = permanent-waved lock, after 12 shampoo washes
[3] = permanent-waved lock, after 18 shampoo washes
[4] = permanent-waved lock, after 20 shampoo washes

| Structure (SMILES) | % degradation [1] | % degradation [2] | % degradation [3] | % degradation [4] | % degradation (natural lock, after 5 shampoo washes) | % degradation (natural lock, after 12 shampoo washes) | % degradation (natural lock, after 18 shampoo washes) | % degradation (natural lock, after 20 shampoo washes) |
| --- | --- | --- | --- | --- | --- | --- | --- | --- |
| CN(C)c1ccc(C=CC23OCCN2c2ccccc2C3(C)C)cc1 (stereo not drawn) [Dye 1] | 10% | 17% | 18% | 24% | – | – | – | – |
| CN(C)c1ccc(C=CC=CC23OCCN2c2ccccc2C3(C)C)cc1 (stereo not drawn) [Dye 2] | 6% | 6% | 7% | 11% | 4% | 14% | 18% | 20% |
